Reference: patent publication US8912189B2, “Pyridopyrazine derivatives and their use” (Aeterna Zentaris GmbH, priority 2011, dated 2014)
pEC50, pIC50: −log10 of the molar value.

Key:
Erk2 = target: T1, Erk2; experiment: Cell-free kinase assay (ALPHA technology), Erk2; type: biochemical; conditions: at 10 μM ATP; recombinant human kinase
T1 construct: partly as full-length kinases, partly as shortened fragments, but at least consisting of the functional kinase domains; purchased Upstate 14-173

PI3Kalpha = target: T2, PI3Kalpha (Homo sapiens, UniProt P42336); experiment: Cell-free kinase assay (ALPHA technology), PI3Kalpha; type: biochemical; conditions: at 100 μM ATP; recombinant human kinase
T2 construct: partly as full-length kinases, partly as shortened fragments, but at least consisting of the functional kinase domains; purchased Upstate 14-602
Procedure: The inhibitory effect of the compounds according to the invention was tested on various serine/threonine, tyrosine and lipid kinases in enzymatic assays. Recombinant human kinases such as, for example, Erk2, PI3Kalpha and others were used in this case, partly as full-length kinases, partly as shortened fragments, but at least consisting of the functional kinase domains. The commercial kinase proteins (Proqinase, Upstate) were used as recombinant fusion proteins with GST (glutathion-S-transferase) or His-Tag. Depending on the type of substrate, the various kinase reactions were quantified by means of suitable ALPHA™ beads (Perkin-Elmer).
The substance testing is described in detail hereinafter for the Erk assay. To determine the IC50 value, the potential inhibitor substances were investigated in 10 semi-logarithmically graded concentrations of 3.16 nM-100 μM.
b) PI3K-ALPHAs (e.g. PI3Kalpha): the test substance, 1 ng PI3Kalpha (#14-602, Upstate), 100 μM ATP and 20 μM PIP2 substrate (#64910, Cayman Chemicals) were incubated on a 384-well Optiplate (Perkin-Elmer) for 1 h in 50 mM Hepes, 50 mM NaCl, 5 mM MgCl2, 0.05% Chaps, 5 mM DTT at pH 7.4. The kinase reaction was then stopped by adding ALPHA bead mixes (10 μg/ml, #6760603/Perkin-Elmer) pre-incubated with 1 nM GST:Grp1 fusion protein (Upstate) and 15 nM biotinylated PIP3 (#10009531, Cayman Chemicals) in 50 mM Hepes, 50 mM NaCl, 50 mM EDTA and 0.1% BSA and left to stand overnight.
The fluorescence was detected the following morning in a Envision plate reader (Perkin-Elmer).
The %-inhibition values per substance concentration were calculated by means of the following formula from the raw data determined in the Envision plate reader:
Eight determinations were made for each control and two for the substance samples. The 0% control either contains no ATP or no substrate, the 100% control (fully active kinase) contains no test substance. The IC50 values were determined using GraphPadPrism.

Hct116 = experiment: XTT assay, anti-proliferative effect; type: cell-based; conditions: Homo sapiens, HCT-116; Hct116 cells, ~48 h incubation
Procedure: The principle of this test is based on the intracellular reduction of the tetrazolium dye XTT (sodium 3′-[1-(phenylaminocarbonyl)-3,4-tetrazolium]-bis(4-methoxy-6-nitro)benzene sulfonic acid, Sigma) to a formazan dye by mitochondrial dehydrogenases. The dye is only formed by metabolically active cells and its photometrically measurable intensity is a quantitative indicator for the presence of living cells. The reduction of dye formation by incubation of the cells with substances serves as a parameter for the anti-proliferative effect.
The tumour cell lines (ATCC) were injected into 96-well microtitre plates in a defined cell number (1250 cells/well for Hct116) and then incubated overnight in an incubator at 37° C., 5% CO2 and 95% air humidity. The test substances were prepared as stock solutions (10 mM) in DMSO. To determine the EC50 values the potential inhibitor substances were added to the cells in half-logarithmically graded dilutions, resulting in final concentrations of 1.58 nM-50 μM. The cell plates were then incubated for ˜48 h in an incubator at 37° C., 5% CO2 and 95% air humidity.
For the detection reaction the substrate XTT was mixed with PMS (N-Methyl dibenzopyrazine methylsulfate, Sigma) and added to the cells so that a final concentration of 325 μg XTT/ml and 2.5 μg PMS/ml was obtained. It was then incubated for 3 h at 37° C., 95% air humidity. The formazan salt formed by the cellular dehydrogenases could then be quantified by adsorption at 490 nm.
The % inhibition value was evaluated by means of the following formula from the values for the optical densities measured in each case at 490 nm:
Eight determinations were made for each control and two for the substance samples. The 0% control contains no cells, the 100% control (proliferation control) contains no test substance. The EC50 values were determined using GraphPadPrism.

T1 sequence (P63085 2-358 limits assumed): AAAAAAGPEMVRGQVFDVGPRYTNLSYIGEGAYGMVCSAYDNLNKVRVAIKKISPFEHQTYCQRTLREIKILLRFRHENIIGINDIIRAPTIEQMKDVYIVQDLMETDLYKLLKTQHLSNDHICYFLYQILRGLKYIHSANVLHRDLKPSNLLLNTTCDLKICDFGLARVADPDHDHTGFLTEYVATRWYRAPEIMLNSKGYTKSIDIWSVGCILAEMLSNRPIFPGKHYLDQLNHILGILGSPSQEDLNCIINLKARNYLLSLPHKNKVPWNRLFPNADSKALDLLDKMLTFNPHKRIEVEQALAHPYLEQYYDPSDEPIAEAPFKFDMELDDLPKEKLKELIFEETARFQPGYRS
T2 sequence (P42336 whole entry, the tested form may be a part): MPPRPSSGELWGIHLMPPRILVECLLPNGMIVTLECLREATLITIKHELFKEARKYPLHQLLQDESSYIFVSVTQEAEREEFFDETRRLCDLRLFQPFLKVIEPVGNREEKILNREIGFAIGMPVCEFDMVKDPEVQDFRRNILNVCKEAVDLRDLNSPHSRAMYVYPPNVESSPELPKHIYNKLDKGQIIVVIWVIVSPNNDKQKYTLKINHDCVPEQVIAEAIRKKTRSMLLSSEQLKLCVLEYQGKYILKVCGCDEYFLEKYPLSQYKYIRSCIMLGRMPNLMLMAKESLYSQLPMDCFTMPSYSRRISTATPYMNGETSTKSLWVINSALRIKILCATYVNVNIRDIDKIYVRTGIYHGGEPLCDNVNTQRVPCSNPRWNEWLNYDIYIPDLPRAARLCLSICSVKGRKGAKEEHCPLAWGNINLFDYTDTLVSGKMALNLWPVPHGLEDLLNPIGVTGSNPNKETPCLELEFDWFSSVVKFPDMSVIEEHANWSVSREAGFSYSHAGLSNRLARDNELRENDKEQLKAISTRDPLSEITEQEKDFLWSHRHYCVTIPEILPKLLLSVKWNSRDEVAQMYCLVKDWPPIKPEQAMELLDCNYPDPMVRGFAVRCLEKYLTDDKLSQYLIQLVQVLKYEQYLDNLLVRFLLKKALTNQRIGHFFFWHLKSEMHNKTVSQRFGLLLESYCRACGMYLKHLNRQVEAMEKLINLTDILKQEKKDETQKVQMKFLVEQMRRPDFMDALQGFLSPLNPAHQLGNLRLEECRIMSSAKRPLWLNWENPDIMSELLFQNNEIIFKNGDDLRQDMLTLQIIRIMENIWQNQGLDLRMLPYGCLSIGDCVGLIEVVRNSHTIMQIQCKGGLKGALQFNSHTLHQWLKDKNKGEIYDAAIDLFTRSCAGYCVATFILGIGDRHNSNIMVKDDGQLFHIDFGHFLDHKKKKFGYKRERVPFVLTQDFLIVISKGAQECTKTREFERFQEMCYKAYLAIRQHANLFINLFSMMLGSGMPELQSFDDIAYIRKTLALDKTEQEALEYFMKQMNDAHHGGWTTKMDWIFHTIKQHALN
T2 sequence (P27986 whole entry partner, the tested form may be a part): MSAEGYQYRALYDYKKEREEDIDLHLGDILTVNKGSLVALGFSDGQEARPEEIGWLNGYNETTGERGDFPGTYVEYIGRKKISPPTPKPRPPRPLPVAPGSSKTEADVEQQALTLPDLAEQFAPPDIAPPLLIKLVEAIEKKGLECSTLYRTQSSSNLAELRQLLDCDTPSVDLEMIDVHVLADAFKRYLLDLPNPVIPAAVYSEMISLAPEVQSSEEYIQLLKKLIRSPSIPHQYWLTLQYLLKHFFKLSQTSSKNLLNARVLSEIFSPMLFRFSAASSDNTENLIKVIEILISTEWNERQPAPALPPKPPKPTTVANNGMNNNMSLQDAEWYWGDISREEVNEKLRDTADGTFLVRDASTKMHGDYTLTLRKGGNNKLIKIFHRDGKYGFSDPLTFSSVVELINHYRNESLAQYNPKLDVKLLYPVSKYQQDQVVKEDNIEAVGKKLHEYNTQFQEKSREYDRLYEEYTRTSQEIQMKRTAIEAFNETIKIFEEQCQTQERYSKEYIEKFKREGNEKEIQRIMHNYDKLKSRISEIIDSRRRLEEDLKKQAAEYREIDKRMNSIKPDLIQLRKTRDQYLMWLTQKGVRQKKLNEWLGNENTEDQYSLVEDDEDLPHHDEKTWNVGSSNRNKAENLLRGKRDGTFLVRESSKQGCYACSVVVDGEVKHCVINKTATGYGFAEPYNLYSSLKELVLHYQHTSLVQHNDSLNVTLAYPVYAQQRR

Structure (SMILES): CCNC(=S)Nc1ccc2ncc(-c3cnn(Cc4cccc(S(C)(=O)=O)c4)c3)nc2n1 [Compound 65, 1-Ethyl-3-{3-[1-(3-methanesulfonyl-benzyl)-1H-pyrazol-4-yl]-pyrido[2,3-b]pyrazin-6-yl}-thiourea]
- pIC50 (Erk2): 6.65
- pIC50 (PI3Kalpha): 6.74
- pEC50 (Hct116): 5.68

Structure (SMILES): CCNC(=S)Nc1ccc2ncc(-c3cnn(Cc4ccc(OC)c(OC)c4)c3)nc2n1 [Compound 28, 1-{3-[1-(3,4-Dimethoxy-benzyl)-1H-pyrazol-4-yl]-pyrido[2,3-b]pyrazin-6-yl}-3-ethyl-thiourea]
- pIC50 (Erk2): 6.95
- pIC50 (PI3Kalpha): 7.09
- pEC50 (Hct116): 5.78
- melting point: 213 °C

Structure (SMILES): CCNC(=O)Nc1ccc2ncc(-c3cnn(Cc4ccc(OC)c(OC)c4)c3)nc2n1 [Compound 42, 1-{3-[1-(3,4-Dimethoxy-benzyl)-1H-pyrazol-4-yl]-pyrido[2,3-b]pyrazin-6-yl}-3-ethyl-urea]
- pIC50 (Erk2): 7.37
- pIC50 (PI3Kalpha): 6.56
- pEC50 (Hct116): 5.70
- melting point: 205 °C

Structure (SMILES): CCNC(=S)Nc1ccc2ncc(-c3cnn(Cc4ccccc4)c3)nc2n1 [Compound 45, 1-[3-(1-Benzyl-1H-pyrazol-4-yl)-pyrido[2,3-b]pyrazin-6-yl]-3-ethyl-thiourea]
- pIC50 (Erk2): 6.57
- pIC50 (PI3Kalpha): 6.60
- pEC50 (Hct116): 5.71
- melting point: 252 °C

Structure (SMILES): CCNC(=S)Nc1ccc2ncc(-c3cnn(Cc4ccc(O)cc4)c3)nc2n1 [Compound 210, 1-Ethyl-3-{3-[1-(4-hydroxy-benzyl)-1H-pyrazol-4-yl]-pyrido[2,3-b]pyrazin-6-yl}-thiourea]
- pIC50 (Erk2): 6.65
- pIC50 (PI3Kalpha): 6.68
- pEC50 (Hct116): 5.77
- melting point: 257 °C

Structure (SMILES): CCNC(=S)Nc1ccc2ncc(-c3cnn(Cc4cccc(C)c4)c3)nc2n1 [Compound 41, 1-Ethyl-3-{3-[1-(3-methyl-benzyl)-1H-pyrazol-4-yl]-pyrido[2,3-b]pyrazin-6-yl}-thiourea]
- pIC50 (Erk2): 6.40
- pIC50 (PI3Kalpha): 6.74
- pEC50 (Hct116): 5.52
- melting point: 258 to 261 °C

Structure (SMILES): CCNC(=S)Nc1ccc2ncc(-c3cnn(Cc4cccc(OC(F)F)c4)c3)nc2n1 [Compound 27, 1-{3-[1-(3-Difluoromethoxy-benzyl)-1H-pyrazol-4-yl]-pyrido[2,3-b]pyrazin-6-yl}-3-ethyl-thiourea]
- pIC50 (Erk2): 6.12
- pIC50 (PI3Kalpha): 7.23
- pEC50 (Hct116): 5.82

Structure (SMILES): CCNC(=S)Nc1ccc2ncc(-c3cnn(Cc4cccc(OC)c4F)c3)nc2n1 [Compound 29, 1-Ethyl-3-{3-[1-(2-fluoro-3-methoxy-benzyl)-1H-pyrazol-4-yl]-pyrido[2,3-b]pyrazin-6-yl}-thiourea]
- pIC50 (Erk2): 6.31
- pIC50 (PI3Kalpha): 6.95
- pEC50 (Hct116): 5.59
- melting point: 215 to 220 °C

Structure (SMILES): CCNC(=S)Nc1ccc2ncc(-c3cnn(Cc4cccc(OCC)c4)c3)nc2n1 [Compound 49, 1-{3-[1-(3-Ethoxy-benzyl)-1H-pyrazol-4-yl]-pyrido[2,3-b]pyrazin-6-yl}-3-ethyl-thiourea]
- melting point: 222 °C

Structure (SMILES): CCNC(=O)Nc1ccc2ncc(-c3cnn(Cc4cccc(O)c4)c3)nc2n1 [Compound 4, 1-Ethyl-3-{3-[1-(3-hydroxy-benzyl)-1H-pyrazol-4-yl]-pyrido[2,3-b]pyrazin-6-yl}-urea]
- melting point: 242 °C

Structure (SMILES): CCNC(=O)Nc1ccc2ncc(-c3cnn(Cc4ccc(F)c(Cl)c4)c3)nc2n1 [Compound 8, 1-{3-[1-(3-Chloro-4-fluoro-benzyl)-1H-pyrazol-4-yl]-pyrido[2,3-b]pyrazin-6-yl}-3-ethyl-urea]
- melting point: 214 to 219 °C

Structure (SMILES): CCNC(=O)Nc1ccc2ncc(-c3cnn(Cc4ccc(C#N)cc4)c3)nc2n1 [Compound 10, 1-{3-[1-(4-Cyano-benzyl)-1H-pyrazol-4-yl]-pyrido[2,3-b]pyrazin-6-yl}-3-ethyl-urea]
- melting point: 208 to 215 °C

Structure (SMILES): CCNC(=S)Nc1ccc2ncc(-c3cnn(Cc4ccc(F)c(Cl)c4)c3)nc2n1 [Compound 38, 1-{3-[1-(3-Chloro-4-fluoro-benzyl)-1H-pyrazol-4-yl]-pyrido[2,3-b]pyrazin-6-yl}-3-ethyl-thiourea]
- melting point: 235 to 238 °C

Structure (SMILES): CCNC(=S)Nc1ccc2ncc(-c3cnn(Cc4ccc(O)c(OC)c4)c3)nc2n1 [Compound 55, 1-Ethyl-3-{3-[1-(4-hydroxy-3-methoxy-benzyl)-1H-pyrazol-4-yl]-pyrido[2,3-b]pyrazin-6-yl}-thiourea]
- pIC50 (Erk2): 6.28
- pIC50 (PI3Kalpha): 6.41
- melting point: 242 °C

Structure (SMILES): CCNC(=O)Nc1ccc2ncc(-c3cnn(Cc4ccc(OC(F)(F)F)cc4)c3)nc2n1 [Compound 6, 1-Ethyl-3-{3-[1-(4-trifluoromethoxy-benzyl)-1H-pyrazol-4-yl]-pyrido[2,3-b]pyrazin-6-yl}-urea]
- melting point: 231 °C

Structure (SMILES): CCNC(=O)Nc1ccc2ncc(-c3ccoc3)nc2n1 [Compound 432, 1-Ethyl-3-(3-furan-3-yl-pyrido[2,3-b]pyrazin-6-yl)-urea]
- melting point: 240 °C

Structure (SMILES): CCNC(=S)Nc1ccc2ncc(-c3cnn(Cc4ccccc4C)c3)nc2n1 [Compound 52, 1-Ethyl-3-{3-[1-(2-methyl-benzyl)-1H-pyrazol-4-yl]-pyrido[2,3-b]pyrazin-6-yl}-thiourea]
- melting point: 252 to 255 °C

Structure (SMILES): CCNC(=S)Nc1ccc2ncc(-c3cnn(Cc4cccc(O)c4)c3)nc2n1 [Compound 36, 1-Ethyl-3-{3-[1-(3-hydroxy-benzyl)-1H-pyrazol-4-yl]-pyrido[2,3-b]pyrazin-6-yl}-thiourea]
- melting point: 239 °C

Structure (SMILES): CCNC(=S)Nc1ccc2ncc(-c3cnn(Cc4cccc(OC)c4)c3)nc2n1 [Compound 40, 1-Ethyl-3-{3-[1-(3-methoxy-benzyl)-1H-pyrazol-4-yl]-pyrido[2,3-b]pyrazin-6-yl}-thiourea]
- pIC50 (Erk2): 6.47
- pIC50 (PI3Kalpha): 6.77
- pEC50 (Hct116): 5.59
- melting point: 217 to 220 °C

Structure (SMILES): Cc1cccc(Cn2cc(-c3cnc4ccc(NC(=S)NCC(F)(F)F)nc4n3)cn2)c1 [Compound 51, 1-{3-[1-(3-Methyl-benzyl)-1H-pyrazol-4-yl]-pyrido[2,3-b]pyrazin-6-yl}-3-(2,2,2-trifluoro-ethyl)-thiourea]
- melting point: 249 °C

Structure (SMILES): CCNC(=S)Nc1ccc2ncc(-c3cnn(Cc4ccc(OC)c(O)c4)c3)nc2n1 [Compound 57, 1-Ethyl-3-{3-[1-(3-hydroxy-4-methoxy-benzyl)-1H-pyrazol-4-yl]-pyrido[2,3-b]pyrazin-6-yl}-thiourea]
- melting point: 230 °C

Structure (SMILES): CCNC(=S)Nc1ccc2ncc(-c3cnn(CCc4ccccc4)c3)nc2n1 [Compound 53, 1-Ethyl-3-[3-(1-phenethyl-1H-pyrazol-4-yl)-pyrido[2,3-b]pyrazin-6-yl]-thiourea]
- melting point: 231 to 233 °C

Structure (SMILES): CCNC(=O)Nc1ccc2ncc(-c3cnn(Cc4ccc(Br)c(C)c4)c3)nc2n1 [Compound 22, 1-{3-[1-(4-Bromo-3-methyl-benzyl)-1H-pyrazol-4-yl]-pyrido[2,3-b]pyrazin-6-yl}-3-ethyl-urea]
- melting point: 250 to 252 °C
